Measurements: patent US20060089391A1, “Treatment of cancer in pediatric patients” (priority 2004, published 2006)
Like-named read-outs stand apart in the source and are kept apart here.

Tests used:
[1] = target: biotinylated bovine brain tubulin; details: competition of [3H]colchicine
[2] = test system: neuroblastoma; test: Clinical response in pediatric patients with neuroblastoma; type: in vivo, human
From the text: Patients (n=19) with neuroblastoma have experienced time-to-disease progresson with a median progression free survival (FPS) of 20 weeks.

[3] = Pharmacokinetic profiles of pediatric patients after oral dosing; type: in vivo, human; details: for area under the plasma concentration time curve / time of maximum plasma concentration: immediate release composition
[4] = one 75 mg per mm^2 per day oral dose for 21 days
[5] = one 100 mg per mm^2 per day oral dose for 21 days
[6] = one 130 mg per mm^2 per day oral dose for 21 days
[7] = one 165 mg per mm^2 per day oral dose for 21 days
[8] = one 200 mg per mm^2 per day oral dose for 21 days
[9] = one 250 mg per mm^2 per day oral dose for 21 days

Molecule `CC[C@]1(O)C[C@@H]2CN(CCc3c([nH]c4ccccc34)[C@@](C(=O)OC)(c3cc4c(cc3OC)N(C)[C@H]3[C@@](O)(C(=O)OC)[C@H](OC(C)=O)[C@]5(CC)C=CCN6CC[C@]43[C@@H]65)C2)C1` [vinblastine] has a Ki [1] greater than 100000 nM.
In the case of `COc1ccc(S(=O)(=O)Nc2cccnc2Nc2ccc(O)cc2)cc1` [ABT-751, N-(2-((4-hydroxyphenyl)amino)pyrid-3-yl)-4-methoxybenzenesulfonamide], the Ki [1] is reported as 2600 nM, the “clinical outcome of a single patient” value ([2]; patient with neuroblastoma, 100 mg/mm^2/d on the daily x7 schedule) is reported as “disease stabilization after 44 cycles” and the “median progression free survival (FPS)” value ([2]; patients (n=19) with neuroblastoma) is reported as 20 weeks. The Tmax ([3]; 250 mg/mm^2/d QD oral) was 2.0 h, the Tmax ([3]; human, in vivo, 200 QD oral, mean±SD, read-out: Tmax) was 3 ± 1.7 h and the Cmax ([3]; human, plasma, 75 QD oral, mean±SD) was 8000 ± 1700 ng/mL. The Tmax ([3]; human, plasma, 75 QD oral, mean±SD, read-out: Tmax) was 2.7 ± 0.6 h, the Cmax ([3]; human, plasma, 100 QD oral, mean±SD) was 10600 ± 3000 ng/mL and the Tmax ([3]; human, plasma, 100 QD oral, mean±SD, read-out: Tmax) was 1.9 ± 1 h. For the same molecule, the Cmax ([3]; human, plasma, 130 QD oral, mean±SD) was 10800 ± 2900 ng/mL, the Tmax ([3]; human, plasma, 130 QD oral, mean±SD, read-out: Tmax) was 2.2 ± 0.8 h and the Cmax ([3]; human, plasma, 165 QD oral, mean±SD) was 13500 ± 4600 ng/mL. The Tmax ([3]; human, plasma, 165 QD oral, mean±SD, read-out: Tmax) was 3 ± 1.7 h, the Cmax ([3]; human, plasma, 200 QD oral, mean±SD) was 16900 ± 8100 ng/mL and the Cmax ([3]; human, plasma, 250 QD oral, mean±SD) was 23300 ± 6500 ng/mL. The “area under the plasma concentration time curve” value (“area” for short) [3, 4] was 52000 ± 21000 ng·h/mL, the time of maximum plasma concentration [3, 4] was 2.7 ± 0.6 h and the “area” value [3, 5] was 60000 ± 19000 ng·h/mL. The time of maximum plasma concentration [3, 5] was 1.9 ± 1 h, the “area” value [3, 6] was 62000 ± 19000 ng·h/mL and the time of maximum plasma concentration [3, 6] was 2.2 ± 0.8 h. For the same molecule, the “area” value [3, 7] was 90000 ± 27000 ng·h/mL, the time of maximum plasma concentration [3, 7] was 3 ± 1.7 h and the “area” value [3, 8] was 91000 ± 24000 ng·h/mL. For the same molecule, the time of maximum plasma concentration [3, 8] was 3 ± 1.7 h, the “area” value [3, 9] was 129000 ± 23000 ng·h/mL and the time of maximum plasma concentration [3, 9] was 2 h.
